We go through one molecule from patent publication US9951039B2, “Pyrimidines for treatment of bacterial infections” (The Hong Kong Polytechnic University, priority 2016, dated 2018).

The subject of data set [1] is USA300 #2690 (community-associated MRSA). The data set can be described thus: MIC against clinically isolated strain 9. It counts as cell-based, S. aureus. To be noted: Staphylococcus aureus. As to the method: (§1) Procedure of Antimicrobial susceptibility test: The MIC value of compounds was measured in the antimicrobial susceptibility test using the broth microdilution procedure in accordance with the CLSI guidelines.^21 Cation-adjusted Mueller Hinton broth (CA-MHB) was used for all the S. aureus strains in the assay. Cells in exponential phase of growth were diluted to approximately 5×10^5 cfu/mL. Stock solutions of each compound were freshly dissolved in dimethyl sulfoxide (DMSO). Then, serial dilutions of each compound in CA-MHB medium were added into 96-well microplate. The final percentage of DMSO in the assay was 1%. Control experiments were performed with 1% DMSO instead of the compound solution. After being incubated at 37° C. for 18 h, OD600 value of cells was measured on a microplate reader and the percentage of bacterial cell inhibition with respect to controls was calculated. The MIC value was defined as the lowest compound concentration at which the growth of bacteria was inhibited by ≥90%. Three independent assays were performed for each compound.
(§2) Results: Three compounds, namely 14av_amine16, 14dv_amine16 and 14dv_amine06, were selected to be tested against nine in-house clinically isolated bacterial strains including S. aureus ATCC29247, which is an ampicillin resistant strain, S. aureus ATCC BAA-41, ATCC BAA-1717, ATCC BAA-1720, ATCC 43300 which are methicillin resistant strains and four USA300 strains, (#417, #757, #1799 and #2690), which are the predominant strain type of community-associated MRSA strains in the United States.

In another data set the target is T1, S. aureus FtsZ (Staphylococcus aureus, UniProt P0A031).
T1 construct: 6-histidine tag; made in house; host or cells: E. coli BL21(DE3)
T1 sequence (P0A031 1-390): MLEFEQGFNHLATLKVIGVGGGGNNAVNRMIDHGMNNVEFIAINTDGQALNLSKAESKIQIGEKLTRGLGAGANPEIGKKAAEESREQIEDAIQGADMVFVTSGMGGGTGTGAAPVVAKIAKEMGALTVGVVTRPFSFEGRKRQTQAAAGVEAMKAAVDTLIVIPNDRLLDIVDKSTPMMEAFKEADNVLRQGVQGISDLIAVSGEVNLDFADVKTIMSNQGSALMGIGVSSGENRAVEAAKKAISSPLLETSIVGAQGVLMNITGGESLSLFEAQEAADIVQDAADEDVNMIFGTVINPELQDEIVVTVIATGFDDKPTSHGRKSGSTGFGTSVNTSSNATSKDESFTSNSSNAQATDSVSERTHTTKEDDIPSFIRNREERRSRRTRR
As to the kind of experiment: Saturation Transfer Difference (STD) NMR study. It counts as binding. To be noted: 298K, line broadening and STD effect. As to the method:
Procedure for expression and purification of S. aureus FtsZ protein: S. aureus FtsZ protein was prepared as previous reported.^16a In brief, E. coli BL21(DE3) cells, transformed with a pRSET-A-S vector carrying S. aureus FtsZ with a 6-histidine tag attached, were streaked on a nutrient agar plate containing 50 μg/mL ampicillin. After overnight incubation at 37° C., a single colony was inoculated into 5 mL of Luria-Bertani (LB) medium in the presence of 50 μg/mL ampicillin, which was then incubated at 37° C., with shaking at 250 rpm for 16 h. […]
Procedure STD NMR study: STD NMR experiments were performed on a Bruker Avance III 600 NMR spectrometer equipped with a QCI cryoprobe at 298K. Spectra were recorded with a carrier set at 0.5 ppm for on-resonance irradiation and 30 ppm for off-resonance irradiation. Control spectra were recorded under identical conditions without compound to test for artifacts. Selective protein saturation was accomplished using a train of 40 Gauss-shaped pulses (50 ms with 1 ms delay between pulses) for a total saturation time of 2 s at an experimentally determined optimal power (7.7625 W on the probe); a T1p spinlock filter (20-50 ms) was incorporated to suppress protein resonances. STD spectra were recorded using a minimum of 128 scans and 32 k points covering a spectral width of 6600 Hz. […]

Data set [2] has as its system USA300 #757 (community-associated MRSA). As to the kind of experiment: MIC against clinically isolated strain 7. To be noted: Staphylococcus aureus. It counts as cell-based, S. aureus. As for the experimental part: as §1, §2
The nature of data set [3]: Compound solubility observed in aqueous medium of GTPase assay. It counts as physicochemical. To be noted: higher concentration (>80 μM) causes precipitation in aqueous medium. The source says: Nonetheless, it seems very likely that compound 14av_amine16 suppresses the self-polymerization of FtsZ protein, probably via disrupting the GTPase hydrolysis activity of FtsZ protein.

In brackets after ≈: the same amount, converted by molar mass.

What is called MIC is the lowest concentration found to suppress growth. As for `CCC(CC)c1cc(CCN2CCCN(Cc3ccc(C(F)(F)F)cc3)CC2)nc(-c2ccncc2)n1` [Compound 14av_amine16, 1-(2-(6-(pentan-3-yl)-2-(pyridin-4-yl)pyrimidin-4-yl)ethyl)-4-(4-(trifluoromethyl)benzyl)-1,4-diazepane], the MIC in data set [1] and in data set [2] was 12 µM (≈ 6.14 µg/mL) throughout. The “binding to FtsZ protein by STD NMR” value on S. aureus FtsZ is on record as “indeed bind to FtsZ protein”. For the same molecule, the compound solubility result in data set [3] was “poor compound solubility”.
